# Experimental data reported in patent US20160108027A1, “SUBSTITUTED BENZOXAZOLES” (BAYER PHARMA AKTIENGESELLSCHAFT, priority 2013, published 2016).
# How the values were obtained:
# thrombin [1] = molecular target: T1, thrombin (Homo sapiens, UniProt P00734); experiment: Measurement of the thrombin inhibition in buffer; format: biochemical; settings: human thrombin 0.06 nmol/l in Tris buffer pH 7.4, 22° C., substrate Boc-Asp(OBzl)-Pro-Arg-AMC; in some cases means of individual determinations
# Experimental: To determine the thrombin inhibition of the substances listed above, a biochemical test system is constructed in which the conversion of a thrombin substrate is used for determining the enzymatic activity of human thrombin. Here, thrombin cleaves aminomethylcoumarin, which is measured fluorescently, from the peptic substrate. The determinations are carried out in microtitre plates.
# Substances to be tested are dissolved in various concentrations in dimethyl sulphoxide and incubated for 15 min with human thrombin (0.06 nmol/l dissolved in 50 mmol/l of Tris buffer [C,C,C-tris(hydroxymethyl)aminomethane], 100 mmol/l of sodium chloride, 0.1% BSA [bovine serum albumin], pH 7.4) at 22° C. The substrate (5 μmol/l Boc-Asp(OBzl)-Pro-Arg-AMC from Bachem) is then added. After 30 min of incubation, the sample is excited at a wavelength of 360 nm and the emission is measured at 460 nm. The measured emissions of the test mixtures with test substance are compared to the control mixtures without test substance (only dimethyl sulphoxide instead of test substance in dimethyl sulphoxide) and IC50 values are calculated from the concentration/activity relationships. Representative activity data from this test are given in Table 1 below (in some cases as means of individual determinations): […]
# thrombin [2] = molecular target: T1, thrombin; experiment: Determination of the thrombin-inhibitory activity in plasma samples (ecarin-activated); format: biochemical; settings: citrate plasma, ecarin activation, fluorogenic thrombin substrate; in some cases means of individual determinations
# Experimental: To determine the inhibition of thrombin in plasma samples, plasma […] is activated by ecarin. Thrombin activity and/or its inhibition by potential inhibitors is/are then measured fluorenscently by addition of a substrate.
# The substances to be tested are dissolved in various concentrations in dimethyl sulphoxide and diluted with water. In white 96-well flat-bottomed plates, 20 μl of substance dilution are mixed with 20 μl of ecarin solution (ecarin reagent, from Sigma E-0504, final concentration 20 mU per reaction) in Ca buffer (200 mM Hepes+560 mM sodium chloride+10 mM calcium chloride+0.4% PEG) or with 20 μl of Ca buffer (as unstimulated control). Furthermore, 20 μl of fluorogenic thrombin substrate (from Bachem 1-1120, final concentration 50 μmol/1) and 20 μl of citrate plasma (from Octapharma) are added, and the mixture is homogenized well. The plate is measured in a SpectraFluorplus Reader using a 360 nm excitation filter and a 465 nm emission filter every minute over 20 minutes. […] Representative activity data from this test are given in Table 2 below (in some cases as means of individual determinations): […]
IC50 (thrombin [1]) [nM],IC50 (thrombin [2]) [nM],Structure (SMILES)
31,39,"COc1cc(C(=O)N2C[C@H](OC3CC3)C[C@H]2C(=O)N2CC(F)(F)C2)cc2nc(NCc3cc(Cl)ccn3)oc12 [Example 10, (2-{[(4-Chloropyridin-2-yl)methyl]amino}-7-methoxy-1,3-benzoxazol-5-yl){(2S,4R)-4-(cyclopropyloxy)-2-[(3,3-difluoroazetidin-1-yl)carbonyl]pyrrolidin-1-yl}methanone]"
21,33,"COc1cc(C(=O)N2CC(C)OCC2CC(C)(C)O)cc2nc(NCc3cc(Cl)ccn3)oc12 (racemic) [Example 55, (2-{[(4-Chloropyridin-2-yl)methyl]amino}-7-methoxy-1,3-benzoxazol-5-yl) [5-(2-hydroxy-2-methylpropyl)-2-methylmorpholin-4-yl]methanone]"
50,50,"COCC1COC(C)(C)CN1C(=O)c1cc(OC)c2oc(NCc3cc(Cl)ccn3)nc2c1 (racemic) [Example 41, (2-{[(4-Chloropyridin-2-yl)methyl]amino}-7-methoxy-1,3-benzoxazol-5-yl) [5-(methoxymethyl)-2,2-dimethylmorpholin-4-yl]methanone]"
18,28,"COc1cc(C(=O)N2CC(C)(C)OCC2C2(O)CC2)cc2nc(NCc3cc(Cl)ccn3)oc12 (single isomer, unassigned) [Example 94, (2-{[(4-Chloropyridin-2-yl)methyl]amino}-7-methoxy-1,3-benzoxazol-5-yl) [5-(1-hydroxycyclopropyl)-2,2-dimethylmorpholin-4-yl]methanone]"
4.4,8.9,"COc1cc(C(=O)N2C[C@H](OC3CC3)C[C@H]2CO)cc2nc(NCc3cc(Cl)ccn3)oc12 [Example 12, (2-{[(4-Chloropyridin-2-yl)methyl]amino}-7-methoxy-1,3-benzoxazol-5-yl)[(2S,4R)-4-(cyclopropyloxy)-2-(hydroxymethyl)pyrrolidin-1-yl]methanone]"
11,34,"COCC1COC(C)(CCO)CN1C(=O)c1cc(OC)c2oc(NCc3cc(Cl)ccn3)nc2c1 (single isomer, unassigned) [Example 31]"
12,36,"COc1cc(C(=O)N2CC(C)(CCO)OCC2(C)C)cc2nc(NCc3cc(Cl)ccn3)oc12 (racemic) [Example 32, (2-{[(4-Chloropyridin-2-yl)methyl]amino}-7-methoxy-1,3-benzoxazol-5-yl) [2-(2-hydroxyethyl)-2,5,5-trimethylmorpholin-4-yl]methanone]"
12,28,"COc1cc(C(=O)N2CC(C)OCC2C2CC(O)C2)cc2nc(NCc3cc(Cl)ccn3)oc12 (single isomer, unassigned) [Example 50, (2-{[(4-Chloropyridin-2-yl)methyl]amino}-7-methoxy-1,3-benzoxazol-5-yl) [5-(3-hydroxycyclobutyl)-2-methylmorpholin-4-yl]methanone]"
0.8,6.5,"COc1cc(C(=O)N2CC(C)(CC(C)O)OCC2CF)cc2nc(NCc3cc(Cl)ccn3)oc12 (single isomer, unassigned) [Example 23, (2-{[(4-Chloropyridin-2-yl)methyl]amino}-7-methoxy-1,3-benzoxazol-5-yl) [5-(fluoromethyl)-2-(2-hydroxypropyl)-2-methylmorpholin-4-yl]methanone]"
41,43,"COc1cc(C(=O)N2CC(C)(C)OCC2C(C)O)cc2nc(NCc3cc(Cl)ccn3)oc12 (single isomer, unassigned) [Example 96, (2-{[(4-Chloropyridin-2-yl)methyl]amino}-7-methoxy-1,3-benzoxazol-5-yl) [5-(1-hydroxyethyl)-2,2-dimethylmorpholin-4-yl]methanone]"
37,70,"COc1cc(C(=O)N2C[C@H](OCC(F)F)CC2CO)cc2nc(NCc3cc(Cl)ccn3)oc12 (single isomer, unassigned) [Example 7]"
13,19,"CCC1C(=O)NC2(CC2)CN1C(=O)c1cc(OC)c2oc(NCc3cc(Cl)ccn3)nc2c1 (racemic) [Example 78, 7-[(2-{[(4-Chloropyridin-2-yl)methyl]amino}-7-methoxy-1,3-benzoxazol-5-yl)carbonyl]-6-ethyl-4,7-diazaspiro[2.5]octan-5-one]"
36,49,"COc1cc(C(=O)N2CC(C)OCC23CC(O)C3)cc2nc(NCc3cc(Cl)ccn3)oc12 (single isomer, unassigned) [Example 53, (2-{[(4-Chloropyridin-2-yl)methyl]amino}-7-methoxy-1,3-benzoxazol-5-yl)(2-hydroxy-7-methyl-8-oxa-5-azaspiro[3.5]non-5-yl)methanone]"
7.2,14,"COc1cc(C(=O)N2CC(C)(CCO)OCC2(C)C)cc2nc(NCc3cc(Cl)ccn3)oc12 (single isomer, unassigned) [Example 33, (2-{[(4-Chloropyridin-2-yl)methyl]amino}-7-methoxy-1,3-benzoxazol-5-yl) [2-(2-hydroxyethyl)-2,5,5-trimethylmorpholin-4-yl]methanone]"
2.1,7.6,"COc1cc(C(=O)N2CC(C)(CC(C)O)OC[C@H]2C)cc2nc(NC(C)c3cc(Cl)ccn3)oc12 (single isomer, unassigned) [Example 27]"
11,40,"COc1cc(C(=O)N2CC(C)(C)OCC2(C)CO)cc2nc(NCc3cc(Cl)ccn3)oc12 (single isomer, unassigned) [Example 39, (2-{[(4-Chloropyridin-2-yl)methyl]amino}-7-methoxy-1,3-benzoxazol-5-yl) [5-(hydroxymethyl)-2,2,5-trimethylmorpholin-4-yl]methanone]"
97,–,"COc1cc(C(=O)N2CC(C)OCC2CCO)cc2nc(NCc3cc(Cl)ccn3)oc12 (single isomer, unassigned) [Example 71, (2-{[(4-Chloropyridin-2-yl)methyl]amino}-7-methoxy-1,3-benzoxazol-5-yl) [5-(2-hydroxyethyl)-2-methylmorpholin-4-yl]methanone]"
330,–,"CCO[C@@H]1CC(CO)N(C(=O)c2cc(OC)c3oc(NCc4cc(Cl)ccn4)nc3c2)C1 (single isomer, unassigned) [Example 3]"
550,–,"COc1cc(C(=O)N2C[C@H](OC3CC3)C[C@H]2CO)cc2nc(NC(C)c3cc(Cl)ccn3)oc12 (single isomer, unassigned) [Example 14]"
44,–,"COc1cc(C(=O)N2CC(C)(C)OCC2CC(C)O)cc2nc(NCc3cc(Cl)ccn3)oc12 (single isomer, unassigned) [Example 64, (2-{[(4-Chloropyridin-2-yl)methyl]amino}-7-methoxy-1,3-benzoxazol-5-yl) [5-(2-hydroxypropyl)-2,2-dimethylmorpholin-4-yl]methanone]"
28,–,"COc1cc(C(=O)N2CC(C)OCC2CC(C)O)cc2nc(NCc3cc(Cl)ccn3)oc12 (single isomer, unassigned) [Example 66, (2-{[(4-Chloropyridin-2-yl)methyl]amino}-7-methoxy-1,3-benzoxazol-5-yl) [5-(2-hydroxypropyl)-2-methylmorpholin-4-yl]methanone]"
32,–,"COc1cc(C(=O)N2CC(C)OCC2(C)C)cc2nc(NCc3cc(Cl)ccn3)oc12 (racemic) [Example 44, (2-{[(4-Chloropyridin-2-yl)methyl]amino}-7-methoxy-1,3-benzoxazol-5-yl)(2,5,5-trimethylmorpholin-4-yl)methanone]"
6.6,–,"COc1cc(C(=O)N2CC(C)CCC2CC2(O)CC2)cc2nc(NCc3cc(Cl)ccn3)oc12 (single isomer, unassigned) [Example 88, (2-{[(4-Chloropyridin-2-yl)methyl]amino}-7-methoxy-1,3-benzoxazol-5-yl){2-[(1-hydroxycyclopropyl)methyl]-5-methylpiperidin-1-yl}methanone]"
2600,–,"[2H]C([2H])(C)O[C@@H]1CC(CO)N(C(=O)c2cc(OC)c3oc(NC(C)c4cc(Cl)ccn4)nc3c2)C1 (single isomer, unassigned) [Example 8]"
170,–,"COc1cc(C(=O)N2CC(C)(C)NC(=O)C2CC(N)=O)cc2nc(NCc3cc(Cl)ccn3)oc12 (racemic) [Example 82, 2-{1-[(2-{[(4-Chloropyridin-2-yl)methyl]amino}-7-methoxy-1,3-benzoxazol-5-yl)carbonyl]-5,5-dimethyl-3-oxopiperazin-2-yl}acetamide]"
2800,–,"CCO[C@@H]1CC(CO)N(C(=O)c2cc(OC)c3oc(NC(C)c4cc(Cl)ccn4)nc3c2)C1 (single isomer, unassigned) [Example 5]"
